Measurements as given in patent US10722451B2, “Tree bark extract as anti-aging composition and uses thereof” (LES LABORATOIRES BIOFOREXTRA, priority 2017, dated 2020).

How the values were obtained:
[1] = UV protection in vitro by spectrophotometer (SPF calculation); type: physicochemical; settings: 20 μg/ml in ethanol; absorbance 290-320 nm
[2] = tested on: type I Collagen in human skin fibroblasts (WS1); test: Stimulation of collagen type I in skin fibroblasts (immunofluorescence); type: cell-based; settings: positive control at 10 ng/mL
Method: The effect of the extract on collagen stimulation was evaluated using specific antibodies to type I Collagen. Once bound to collagen, the primary antibody is detected by a secondary antibody on which a fluorophore is grafted. Human skin fibroblasts (WS1, ATCC CRL-1502) were seeded in 96-well microplates in a full decomplemented culture medium and incubated overnight at 37° C. and 5% CO2 to allow their adherence. Thereafter, the cells were incubated for 24 hours in the absence or presence of increasing concentrations of Red maple bark extract (12.5, 25, 50 and 100 μg/mL). The culture medium containing the extract was then removed and the cells were fixed with 95% ethanol for 10 minutes. The cells were washed three times with PBS and permeabilized with 0.5% Triton solution in PBS for 15 minutes. […] The fluorescence emitted by the secondary antibody was then measured and pictures were taken with a fluorescence microscope Cytation3.
The effect of the extract on collagen stimulation was evaluated using specific antibodies to type I Collagen. Once bound to collagen, the primary antibody is detected by a secondary antibody on which a fluorophore is grafted. […] The fluorescence emitted by the secondary antibody was then measured and pictures were taken with a fluorescence microscope Cytation3.

| SPF [1] | Compound | average increase of collagen (fluorescence) compared to untreated cells [2] |
| --- | --- | --- |
| 3.9 ± 0.2 | CC1CC(OC(=O)c2ccccc2O)CC(C)(C)C1 (centres unmarked) [Homosalate] | – |
| – | TGF-β | 56% |
